Read-outs that look alike come from different tables or passages of the source.
Columns and labels:
[1] = Lipophilicity, 1-octanol/phosphate buffer pH 7.4; assay type: physicochemical; details: read-out: Lipophilicity LogD7.4
[2] = Metabolic stability in mouse liver microsomes; assay type: in vitro ADME
Method: (§1) Eq. 4 Predicted t1/2 t1/2=−0.693/λ (4) Where λ is the slope of the Ln % parent remaining vs. time curve. • v. Plasma protein binding. Plasma protein binding was determined in pooled human plasma using an ultracentrifugation method. Stock solutions of test compounds (10 mM) were diluted in phosphate buffer and spiked into plasma in deep well 96-well plates (10 µM). An aliquot of each compound was immediately precipitated with ice cold acetonitrile containing the internal standard carbamazepine (0.1 μM). These served as total concentration samples. After incubation in a water bath at 37°C for 1 h, the samples were transferred to ultracentrifuge tubes in duplicate and centrifuged for 4 h at 37°C and 30,000 g (Optima L-80XP, Beckman). Following centrifugation, the supernatant was transferred to the plate containing the total concentration samples and precipitated with ice cold acetonitrile containing the internal standard. Analyte concentrations of all compounds were determined via LC-MS/MS (reverse phase Gemini NX-C18 column and Shimadzu HPLC coupled with an AB Sciex 3200 Q TRAP MS) as described above. • vi. Metabolic stability. A 5-point metabolic stability assay in human and mouse liver microsomes were performed in duplicate in 96-well plates. […] The cofactor NADPH was added, and the reactions were subsequently stopped at time points 5, 10, 30 and 60 min by removal of an aliquot and quenching with ice cold acetonitrile containing the internal standard. The supernatant of all samples was analysed via LC-MS/MS analysis (reverse phase Gemini NX-C18 column and Shimadzu HPLC and AB Sciex 3200 Q TRAP MS) as described above.

[3] = system: Plasmodium falciparum DD2; test: Parasite lactate dehydrogenase (pLDH) assay over 72 h, CQ-resistant strain; assay type: cell-based; details: for Resistance index: IC50 (resistant strain)/IC50 (sensitive strain), DD2/NF54; for IC50: Plasmodium falciparum, CQ-resistant DD2, pLDH 72 h, n = 3, read-out: Plasmodium falciparum IC50 DD2
Method: (§2) The assay was performed in quadruplicate. The data were analyzed by nonlinear regression analysis using the GraphPad PRISM version 5.00 program to determine the IC50 of each compound.

[4] = system: Plasmodium falciparum NF54; test: Parasite lactate dehydrogenase (pLDH) assay over 72 h, CQ-sensitive strain; assay type: cell-based
Method: as §2

[5] = Plasma stability in pooled human plasma; assay type: in vitro ADME; details: for half-life: 37°C
Method: . […] The aqueous mobile phase was water with 0.1% formic acid and the organic mobile phase was acetonitrile with 0.1% formic acid. The gradient method has a flow rate of 0.8 mL/min, with a total run time of 2.5 min starting at 5% organic and increasing to 95% at 1.4 min, holding for 40 s before returning to 5% to re-equilibrate the column. • ii. Lipophilicity. Stock solutions (10 mM) of compounds were diluted to 100 μM in 96-well deep-well plate containing 300 µL of 1-octanol and 300 µL of phosphate buffer at pH 7.4. The plate was agitated on an orbital shaker at 750 rpm for 2 h. The organic and buffer layers of each well were transferred separately to a new analysis plate. The samples were analysed with the HPLC diode array detection as described for kinetic solubility. Samples from both layers were analysed to determine LogD7.4 values. • iii. Passive permeability. A parallel artificial membrane permeation assay (PAMPA) was used to assess the passive permeability of compounds with a 96-well MultiScreen filter plate ([…] pore size, Millipore). The filter plate was precoated with 5% hexadecane in hexane. Stock solutions of compounds were diluted to 1 mM in a donor buffer (pH 6.5). Lucifer yellow was added to the apical wells of the precoated MultiScreen plate containing compound donor solution. The donor buffer solutions were spiked with each test compound (1 mM). The acceptor-buffer solution was prepared by adding 10 μL DMSO to 990 μL acceptor buffer (pH 7.4) and 250 μL were added to the basolateral (acceptor) wells. The donor plate was carefully inserted into the acceptor plate and incubated at room temperature for 4 h. After the incubation period, 50 μL of samples from the acceptor plate were transferred to a round bottom 96-well plate, together with 30 μL of donor buffer for matrix matching. Theoretical equilibrium samples for each test compound were prepared by adding 150 μL of donor solutions to 250 μL acceptor solutions and left at room temperature. These theoretical equilibrium samples represent complete transfer of the compound into the donor well. For the theoretical equilibrium samples, 80 μL were added to the analysis plate. Lastly, 160 μL of the internal standard carbamazepine (0.1 μM) was added to all acceptor and equilibrium samples. A portion of the sample containing Lucifer yellow was analyzed on a BioRad iMarkTM Microplate Absorbance Reader (BioRad, Hercules, CA, United States; […]. Samples were analysed using reverse phase Gemini NX-C18 column (5 μm, 2.1 mm × 50 mm) with a Shimadzu HPLC coupled with an AB Sciex 3200 Q TRAP MS). […]. Plasma stability. Stock solutions of compounds in DMSO (10 mM) were used to spike pooled human plasma. […]
. Plasma protein binding was determined in pooled human plasma using an ultracentrifugation method. […]

[6] = Kinetic solubility in PBS; assay type: physicochemical; details: phosphate buffer saline (PBS), aqueous buffer, kinetic from dmso stock
Method: . […] The aqueous mobile phase was water with 0.1% formic acid and the organic mobile phase was acetonitrile with 0.1% formic acid. The gradient method has a flow rate of 0.8 mL/min, with a total run time of 2.5 min starting at 5% organic and increasing to 95% at 1.4 min, holding for 40 s before returning to 5% to re-equilibrate the column. • ii. Lipophilicity. Stock solutions (10 mM) of compounds were diluted to 100 μM in 96-well deep-well plate containing 300 µL of 1-octanol and 300 µL of phosphate buffer at pH 7.4. The plate was agitated on an orbital shaker at 750 rpm for 2 h. The organic and buffer layers of each well were transferred separately to a new analysis plate. The samples were analysed with the HPLC diode array detection as described for kinetic solubility. Samples from both layers were analysed to determine LogD7.4 values. • iii. Passive permeability. A parallel artificial membrane permeation assay (PAMPA) was used to assess the passive permeability of compounds with a 96-well MultiScreen filter plate ([…] pore size, Millipore). The filter plate was precoated with 5% hexadecane in hexane. Stock solutions of compounds were diluted to 1 mM in a donor buffer (pH 6.5). Lucifer yellow was added to the apical wells of the precoated MultiScreen plate containing compound donor solution. The donor buffer solutions were spiked with each test compound (1 mM). The acceptor-buffer solution was prepared by adding 10 μL DMSO to 990 μL acceptor buffer (pH 7.4) and 250 μL were added to the basolateral (acceptor) wells. The donor plate was carefully inserted into the acceptor plate and incubated at room temperature for 4 h. After the incubation period, 50 μL of samples from the acceptor plate were transferred to a round bottom 96-well plate, together with 30 μL of donor buffer for matrix matching. Theoretical equilibrium samples for each test compound were prepared by adding 150 μL of donor solutions to 250 μL acceptor solutions and left at room temperature. These theoretical equilibrium samples represent complete transfer of the compound into the donor well. For the theoretical equilibrium samples, 80 μL were added to the analysis plate. Lastly, 160 μL of the internal standard carbamazepine (0.1 μM) was added to all acceptor and equilibrium samples. A portion of the sample containing Lucifer yellow was analyzed on a BioRad iMarkTM Microplate Absorbance Reader (BioRad, Hercules, CA, United States; […]. Samples were analysed using reverse phase Gemini NX-C18 column (5 μm, 2.1 mm × 50 mm) with a Shimadzu HPLC coupled with an AB Sciex 3200 Q TRAP MS). […]. Plasma stability. Stock solutions of compounds in DMSO (10 mM) were used to spike pooled human plasma. 90 μL of each sample was transferred in duplicate to 6 different wells of a 96-deep well plate. An aliquot of each sample was immediately quenched with ice cold acetonitrile containing the internal standard carbamazepine (0.1 µM), after which the plate was incubated in a water bath (37°C for […]). Aliquots of samples were removed at 5, 15, 40, 60 and 180 min and quenched with ice cold acetonitrile. After samples of the final time point were precipitated, the supernatant was transferred to a round bottom 96-well plate for analysis by LC-MS/MS using a reverse phase Gemini NX-C18 column (5 μm, 2.1 mm × 50 mm) with a Shimadzu HPLC coupled with an AB Sciex 3200 Q TRAP MS) operated at unit resolution in the multiple reaction monitoring (MRM) mode. The aqueous phase consisted of water with 0.1% formic acid and the organic mobile phase consisted of methanol and acetonitrile (1:1, (v/v)) with 0.1% formic acid. […]. The peak area ratios were used to calculate the amount of parent compound remaining and t1/2 in plasma, using the following equations.

[7] = Metabolic stability in human liver microsomes; assay type: in vitro ADME
Method: as §1

[8] = CQ-sensitive NF54, pLDH 72 h, n = 3, read-out: Plasmodium falciparum IC50 NF54
[9] = P. falciparum NF54, read-out: NF54 IC50 (dotted line in concentration-time figures)
[10] = PBS pH 2, read-out: Predicted solubility pH 2
[11] = PBS pH 6.5, read-out: Predicted solubility pH 6.5
[12] = PBS pH 7.4, read-out: Predicted solubility pH 7.4

| Compound | logD at 2 h [1] | CLint scaled [2] [mL/min/kg] | Resistance index [3] | IC50 [3] [nM] | IC50 [4, 8] [nM] | IC50 [4, 9] [nM] | half-life [5] [min] | Parent remaining in plasma after 3 h ([5]; 3 h) [%] | solubility at 2 h [6, 10] [µM] | solubility at 2 h [6, 11] [µM] | solubility at 2 h [6, 12] [µM] | CLint scaled [7] [mL/min/kg] |
| --- | --- | --- | --- | --- | --- | --- | --- | --- | --- | --- | --- | --- |
| CCN(CC)c1ccc2nc3ccc(=[N+](CC)CC)cc-3sc2c1 [AD01] | 0.2 | 80.6 | 0.5 | 11.9 ± 2.8 | 23.1 ± 2.5 | 23 | 85 | 21 | > 150 | > 150 | > 150 | 16.2 |
| CCN(CC)c1ccc2nc3c4ccccc4/c(=N\c4ccccn4)cc-3oc2c1 [PhX6] | 1 | 88.2 | 0.4 | 16.2 ± 2.4 | 41.8 ± 0.04 | 41 | > 150 | – | > 150 | < 5 | < 5 | 20.2 |

From paper PMC10800708, “Efficacies and ADME properties of redox active methylene blue and phenoxazine analogues for use in new antimalarial triple drug combinations with amino-artemisinins” (Frontiers in Pharmacology, 2024)
